Data set [1] has as its system Wistar rats. Put plainly: Arachidonic acid induced paw edema. Format: in vivo, rat. Conditions: one hour after Arachidonic acid. As to the method:
Paw edema was produced in rats by Arachidonic acid following the method of Dimartino et al. (1987) and Laura segura et al., 1998. wistar rats weighing between 130-150 g were divided in to groups of six animals (n=6).A volume of 0.1 ml of 0.5% Arachidonic acid in 0.2M Carbonate buffer was injected in to the plantar side of the right hind paw of the rat. Paw volumes were measured using plethysmometer before and after one hour Arachidonic acid injection. Results obtained were compared with those obtained from the control group, which received vehicle only.

Data set [2] has as its system TNF-α. Put plainly: TNF-α in paw tissue, collagen induced arthritis. Type of data set: in vivo, rat. Conditions: collagen induced study, day 24, 100 mg/kg/day. The source says: It is believed that these proinflammatory cytokines help to propagate a local or systemic inflammatory process, and to induce biosynthesis and secretion of metalloproteinases (MMPs) and osteoclasts that critically contribute to degradation of extracellular matrix and erosion of bone respectively (Burger et al., 1998; Gravallese and Goldring, 2000; Smolen and Steiner, 2003).

For data set [3], the system named is Wistar rats. As to the kind of experiment: Cotton pellet granuloma (sub acute model). As to conditions: BN compounds 100 mg/kg, Indomethacin 5 mg/kg, daily for 7 days. Format: in vivo, rat. As to the method:
Wistar rats weighing between 180-220 gms were anaesthetized with ether. The skin at their back was shaved and disinfected with 70% alcohol according to D'Arcy et al., 1960). An incision was made in the lumbar region. Using a blunt forceps subcutaneous tunnel was formed and a sterilized cotton pellet was placed on both sides in scapular region. Standard 20 mg cotton pellets was weighed and sterilized for the study. Rats were grouped into 5 groups of 6 animals each. […] On 8th day rats in all groups were sacrificed with anesthetic ether. Pellets were removed and kept overnight for incubation at 37° C. Then pellets were dried at 60° C. until they reach constant weight. The wet weight of pellets was also recorded after sacrificing. The average weights of pellets of control group and other treated groups were calculated. The percent change of granuloma weight was calculated for all the test groups comparing with control group.

The test system of data set [4] is IL-1β. As to the kind of experiment: IL-1β in rat paw tissue and serum, FCA model (ELISA). Type of data set: in vivo. Set-up: % Inhibition (IL-1 Beta) / Percentage of Inhibition (IL-1 Beta): concentration or dose not given beside the values. As to conditions: for % Inhibition (IL-1 Beta): FCA model. As to the method: Group I—Normal Control; Group II—Arthritic control; Group III—Arthritic rats administered with Synthetic compound BN-4; Group IV—arthritic rats administered with compound BN-14; Group V—arthritic rats administered with BN-16; Group VI—arthritic rats administered with standard drug indomethacin. Administration of test compounds and indomethacin started on the same day of adjuvant injection at the dose of 100 and 2.5 mg/kg respectively. The test and indomethacin doses continued up to 21 days in FCA induced model and 24 days in collagen induced model. During the study period the paw volumes were measured on 5th, 12th, 18th and 21 st days and the weight of the animals was also recorded at different time intervals. At each time point the percentage of inhibition of paw volume was calculated with reference to mean paw volume of control group In FCA model, animals were sacrificed on 21st day by cervical dislocation. Before sacrificing the animals, blood was collected and used for estimation of total leukocyte count, TNF-α and IL-1β.
In FCA induced study paw tissues were collected on termination day and estimated TNF-α and IL-1β levels for all the groups by ELISA method.
On termination day blood samples were collected and serum was used for the estimation of Both TNF-α and IL-1β levels in FCA and Collagen induced studies. Both the parameters were determined using ELISA kits. TNF-α could not be determined as their expression is very less in serum samples of the rats in the two models studied, where as IL-1β expression in serum was good. Daily treatment of synthetic compounds by oral administration was effective in reducing the serum IL-1β levels (P<0.01) when compared with arthritic control group.

In data set [5] the test system is mice. As to the kind of experiment: Acute oral toxicity, sighting study in mice. Format: in vivo, mouse. Conditions: 2000 mg/kg in mice. As to the method:
In the series of thioenopyridine derivatives compounds BN-4, BN-14 and BN-16 show good antiinflammatory potential in all models tested. […] Acute Oral Toxicity Study was conducted following OECD guidelines by fixed dose method adopted by OECD (420). The study involved preliminary sighting using small number of animals in order to derive the dose effect relation for toxicity and mortality and to provide information on dose selection for the main study.
In the preliminary sighting study, the effect of various dosed administered to single animals of each sex was investigated in a sequential manner. The sighting study generally yields information on the dose-toxicity relationship including an estimate of the minimum lethal dose. In the main study, the test article is administered to groups of 5 males and 5 female animals at one of the fixed doses (5, 50, 500 and 2000 mg/Kg). The dose is derived from the sighting study. It is immediately below that which is expected to result in mortality. If evident toxicity is not seen at the chosen dose level, the substance should be retested at the next higher dose level. If at the initial dose level, animals die, or a severe toxicity reaction requires removal of animals from the study for animal welfare reasons, the substance is retested at the next lower dose level. […]

Setting [6] is: paw tissue, termination day (21st day), BN compounds 100 mg/kg, indomethacin 2.5 mg/kg.
The mark [7] stands for this setting: rat serum, termination day, FCA induced arthritis.

Experimental findings from US20110269790A1, “NOVEL THIENOPYRIDINES AS PHARMACOLOGICALLY ACTIVE AGENTS” (priority 2009, published 2011) are described below.

Where “and” joins values, the source holds several entries; their conditions need not be identical. Equal values may be shown once.

Take `Cc1sc2nc3c(c(N)c2c1C)CCCCC3` [BN-4, 2,3-dimethyl-6,7,8,9-tetrahydro-5H-cyclohepta[b]thieno[3,2-e]pyridin-4-amine]: in data set [1] (50 mg/kg), the “% Inhibition” value is given as 19.13 ± 2.01% and the “Percentage Swelling (50 mg/kg)” value was 55.32 ± 2.06 %. For the same compound, in data set [1] (100 mg/kg), the “% Inhibition” value was 29.94 ± 3.37% and the “Percentage Swelling (100 mg/kg)” value came to 48.54 ± 2.2 %. Also, in data set [1] (200 mg/kg), the “% Inhibition” value is 44.92% and 44.92 ± 3.10%; the “Percentage Swelling (200 mg/kg)” value is listed as 37.50 ± 1.60 %. Besides, the “Inhibition of TNF-α in paw tissues” value in data set [2] is listed as “more significant inhibition (p<0.01)”. For the same compound, in data set [3], the “% Inhibition (granuloma dry weight)” value is recorded as 28.42 ± 3.09 %, the “% Inhibition (granuloma wet weight)” value worked out at 22.23 ± 1.20 %, the “Granuloma Dry Weight” value came out at 83.33 ± 3.59 mg and the “Granuloma Wet Weight” value worked out at 366.08 ± 3.50 mg. The “IL-1 Beta concentration” value in data set [4] (setting [6]) was 92.07 ± 10.70 ng/gm of tissue. In addition, the “% Inhibition (IL-1 Beta)” value in data set [4] (paw tissue, termination day) came out at 33.59 ± 5.53%. In addition, in data set [4] (setting [7]), the “IL-1 Beta concentration” value is reported as 22.83 ± 9.93 Pg/ml of tissue and the “Percentage of Inhibition (IL-1 Beta)” value was 29.28 ± 3.60%.
Regarding `Nc1c2c(nc3sc4c(c13)CCC4)CCCC2` [BN-14, 2,3,6,7,8,9-Hexahydro-1H-cyclopenta[4,5]thieno[2,3-b]quinolin-10-amine], in data set [1] (50 mg/kg), the “% Inhibition” value was 24.21 ± 3.89% and the “Percentage Swelling (50 mg/kg)” value stood at 50.56 ± 3.12 %. Further, in data set [1] (100 mg/kg), the “% Inhibition” value is reported as 33.6 ± 3.11% and the “Percentage Swelling (100 mg/kg)” value was 45.64 ± 2.0 %. In data set [1] (200 mg/kg), the “% Inhibition” value is 41.37% and 41.37 ± 2.40%; the “Percentage Swelling (200 mg/kg)” value is 38.70 ± 1.60 %. For the same compound, in data set [2], the “Inhibition of TNF-α in paw tissues” value was “more significant inhibition (p<0.01)”. Besides, in data set [5], the “Toxicity, sighting study” value is reported as “toxic”. Moreover, in data set [3], the “% Inhibition (granuloma dry weight)” value is reported as 25.48 ± 1.89 %, the “% Inhibition (granuloma wet weight)” value is reported as 20.21 ± 0.58 %, the “Granuloma Dry Weight” value is 86.75 ± 2.20 mg and the “Granuloma Wet Weight” value is 374.42 ± 4.69 mg. Besides, the “IL-1 Beta concentration” value in data set [4] (setting [6]) is 113.0 ± 26.8 ng/gm of tissue. Moreover, in data set [4] (paw tissue, termination day), the “% Inhibition (IL-1 Beta)” value came out at 38.49 ± 14.97%. Further, in data set [4] (setting [7]), the “IL-1 Beta concentration” value is recorded as 50.83 ± 6.11 Pg/ml of tissue and the “Percentage of Inhibition (IL-1 Beta)” value was 22.17 ± 6.51%.
For `Nc1c2c(nc3sc4c(c13)CCC4)CCCCC2` [BN-16, 1,2,3,6,7,8,9,10-Octahydrocyclohepta[b]cyclopenta[4,5]thieno[3,2-e]pyridine-11-amine], in data set [1] (50 mg/kg), the “% Inhibition” value was found to be 21.72 ± 2.80% and the “Percentage Swelling (50 mg/kg)” value is given as 52.32 ± 2.37 %. In data set [1] (100 mg/kg), the “% Inhibition” value was determined as 34.10 ± 2.82% and the “Percentage Swelling (100 mg/kg)” value worked out at 44.95 ± 2.0 %. Moreover, in data set [1] (200 mg/kg), the “% Inhibition” value was 45.63% and 45.63 ± 2.87%; the “Percentage Swelling (200 mg/kg)” value is 36.30 ± 1.80 %. Besides, in data set [2], the “Inhibition of TNF-α in paw tissues” value is “moderate inhibition (p<0.05)”. In data set [3], the “% Inhibition (granuloma dry weight)” value stood at 27.70 ± 1.82 %, the “% Inhibition (granuloma wet weight)” value was 23.09 ± 1.59 %, the “Granuloma Dry Weight” value is listed as 84.16 ± 2.11 mg and the “Granuloma Wet Weight” value was 365.08 ± 6.39 mg. For the same compound, the “IL-1 Beta concentration” value in data set [4] (setting [6]) is reported as 68.87 ± 21.1 ng/gm of tissue. Moreover, in data set [4] (paw tissue, termination day), the “% Inhibition (IL-1 Beta)” value was 40.51 ± 9.56%. In data set [4] (setting [7]), the “IL-1 Beta concentration” value is reported as 17.0 ± 4.50 Pg/ml of tissue and the “Percentage of Inhibition (IL-1 Beta)” value was determined as 32.48 ± 6.22%.
As for `COc1ccc2c(c1)c(CC(=O)O)c(C)n2C(=O)c1ccc(Cl)cc1` [Indomethacin, reference compound], the “Inhibition of TNF-α in paw tissues” value in data set [2] is given as “moderate inhibition (p<0.05)”. Besides, in data set [3], the “% Inhibition (granuloma dry weight)” value came to 32.78 ± 1.88 %, the “% Inhibition (granuloma wet weight)” value was found to be 26.93 ± 2.24 %, the “Granuloma Dry Weight” value turned out to be 78.25 ± 2.19 mg and the “Granuloma Wet Weight” value is reported as 338.01 ± 10.38 mg. The “IL-1 Beta concentration” value in data set [4] (setting [6]) is listed as 81.02 ± 17.98 ng/gm of tissue. For the same compound, in data set [4] (paw tissue, termination day), the “% Inhibition (IL-1 Beta)” value was found to be 40.42 ± 8.73%. In addition, in data set [4] (setting [7]), the “IL-1 Beta concentration” value is recorded as 46.0 ± 7.91 Pg/ml of tissue and the “Percentage of Inhibition (IL-1 Beta)” value is given as 20.04 ± 5.33%.
